Assay results published in patent EP4467141A1, “PYRAZOLO-QUINOLINES AS SELECTIVE INHIBITORS OF GENOTOXIC STRESS-INDUCED IKK/NF- KB PATHWAYS FOR CANCER THERAPY” (Max-Delbrück-Centrum für Molekulare Medizin in der …, priority 2023, dated 2024).

What was measured:
Experiment in all cases: Kinase panel study
Assay type in all cases: biochemical
Conditions in all cases: read-out: Percentage of inhibition; for inhibition at 1 µM: 1000nM; for inhibition at 10 µM: 10000nM
PRKG2 (PKG2) = molecular target: T1, PRKG2 (PKG2) (Homo sapiens, UniProt Q13237)
T1 construct: purchased Thermo Fisher Scientific
T1 sequence (Q13237 1-762): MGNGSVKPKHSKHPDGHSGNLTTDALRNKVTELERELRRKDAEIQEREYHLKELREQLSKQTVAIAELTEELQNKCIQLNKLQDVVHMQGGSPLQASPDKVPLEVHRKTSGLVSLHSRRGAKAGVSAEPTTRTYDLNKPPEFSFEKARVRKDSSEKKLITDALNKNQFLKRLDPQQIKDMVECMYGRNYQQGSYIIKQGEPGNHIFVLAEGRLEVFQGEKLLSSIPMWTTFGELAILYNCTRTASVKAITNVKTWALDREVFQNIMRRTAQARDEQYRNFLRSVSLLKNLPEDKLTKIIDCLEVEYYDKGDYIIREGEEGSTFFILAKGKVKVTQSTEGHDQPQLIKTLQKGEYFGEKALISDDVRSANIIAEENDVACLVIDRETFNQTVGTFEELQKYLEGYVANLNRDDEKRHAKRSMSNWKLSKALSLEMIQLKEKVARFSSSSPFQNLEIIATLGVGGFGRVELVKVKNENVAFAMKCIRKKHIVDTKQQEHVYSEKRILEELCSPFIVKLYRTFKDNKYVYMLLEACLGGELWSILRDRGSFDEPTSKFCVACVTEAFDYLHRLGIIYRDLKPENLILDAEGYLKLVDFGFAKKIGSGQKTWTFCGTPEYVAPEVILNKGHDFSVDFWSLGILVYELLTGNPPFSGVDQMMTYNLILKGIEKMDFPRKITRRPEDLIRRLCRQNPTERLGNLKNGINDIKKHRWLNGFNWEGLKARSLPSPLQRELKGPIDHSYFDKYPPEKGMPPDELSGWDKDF
Outline: (§1)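 Single-point inhibition data at 10 µM or 1 µM compound are shown. They were generated in ZLyte- or Adapta-format biochemical assays performed externally under standard conditions.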

AXL = molecular target: T2, AXL (Homo sapiens, UniProt P30530)
T2 construct: purchased Thermo Fisher Scientific
T2 sequence (P30530 26-894): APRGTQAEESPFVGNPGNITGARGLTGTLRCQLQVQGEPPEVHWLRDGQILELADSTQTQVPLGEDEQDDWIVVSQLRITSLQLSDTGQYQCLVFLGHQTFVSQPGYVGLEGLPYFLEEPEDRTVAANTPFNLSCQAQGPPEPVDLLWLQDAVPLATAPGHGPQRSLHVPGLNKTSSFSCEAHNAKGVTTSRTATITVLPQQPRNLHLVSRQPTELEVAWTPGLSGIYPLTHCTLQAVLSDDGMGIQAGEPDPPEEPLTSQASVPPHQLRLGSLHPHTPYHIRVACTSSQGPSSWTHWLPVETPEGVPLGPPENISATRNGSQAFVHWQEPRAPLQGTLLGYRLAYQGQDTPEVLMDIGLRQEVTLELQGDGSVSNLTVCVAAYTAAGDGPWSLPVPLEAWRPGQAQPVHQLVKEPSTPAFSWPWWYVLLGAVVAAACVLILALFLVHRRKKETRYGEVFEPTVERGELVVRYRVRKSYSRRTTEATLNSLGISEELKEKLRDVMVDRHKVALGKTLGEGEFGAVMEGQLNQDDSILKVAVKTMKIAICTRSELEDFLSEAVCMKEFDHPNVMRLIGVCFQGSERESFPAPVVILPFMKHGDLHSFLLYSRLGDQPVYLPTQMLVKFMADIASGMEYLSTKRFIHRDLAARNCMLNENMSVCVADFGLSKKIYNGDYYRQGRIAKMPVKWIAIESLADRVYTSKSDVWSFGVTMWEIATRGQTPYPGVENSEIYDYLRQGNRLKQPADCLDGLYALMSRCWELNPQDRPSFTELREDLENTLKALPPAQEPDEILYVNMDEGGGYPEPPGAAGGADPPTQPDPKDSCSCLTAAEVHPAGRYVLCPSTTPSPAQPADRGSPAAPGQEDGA
Outline: as §1

ROCK1 = molecular target: T3, ROCK1 (Homo sapiens, UniProt Q13464)
T3 construct: purchased Thermo Fisher Scientific
T3 sequence (Q13464 whole entry): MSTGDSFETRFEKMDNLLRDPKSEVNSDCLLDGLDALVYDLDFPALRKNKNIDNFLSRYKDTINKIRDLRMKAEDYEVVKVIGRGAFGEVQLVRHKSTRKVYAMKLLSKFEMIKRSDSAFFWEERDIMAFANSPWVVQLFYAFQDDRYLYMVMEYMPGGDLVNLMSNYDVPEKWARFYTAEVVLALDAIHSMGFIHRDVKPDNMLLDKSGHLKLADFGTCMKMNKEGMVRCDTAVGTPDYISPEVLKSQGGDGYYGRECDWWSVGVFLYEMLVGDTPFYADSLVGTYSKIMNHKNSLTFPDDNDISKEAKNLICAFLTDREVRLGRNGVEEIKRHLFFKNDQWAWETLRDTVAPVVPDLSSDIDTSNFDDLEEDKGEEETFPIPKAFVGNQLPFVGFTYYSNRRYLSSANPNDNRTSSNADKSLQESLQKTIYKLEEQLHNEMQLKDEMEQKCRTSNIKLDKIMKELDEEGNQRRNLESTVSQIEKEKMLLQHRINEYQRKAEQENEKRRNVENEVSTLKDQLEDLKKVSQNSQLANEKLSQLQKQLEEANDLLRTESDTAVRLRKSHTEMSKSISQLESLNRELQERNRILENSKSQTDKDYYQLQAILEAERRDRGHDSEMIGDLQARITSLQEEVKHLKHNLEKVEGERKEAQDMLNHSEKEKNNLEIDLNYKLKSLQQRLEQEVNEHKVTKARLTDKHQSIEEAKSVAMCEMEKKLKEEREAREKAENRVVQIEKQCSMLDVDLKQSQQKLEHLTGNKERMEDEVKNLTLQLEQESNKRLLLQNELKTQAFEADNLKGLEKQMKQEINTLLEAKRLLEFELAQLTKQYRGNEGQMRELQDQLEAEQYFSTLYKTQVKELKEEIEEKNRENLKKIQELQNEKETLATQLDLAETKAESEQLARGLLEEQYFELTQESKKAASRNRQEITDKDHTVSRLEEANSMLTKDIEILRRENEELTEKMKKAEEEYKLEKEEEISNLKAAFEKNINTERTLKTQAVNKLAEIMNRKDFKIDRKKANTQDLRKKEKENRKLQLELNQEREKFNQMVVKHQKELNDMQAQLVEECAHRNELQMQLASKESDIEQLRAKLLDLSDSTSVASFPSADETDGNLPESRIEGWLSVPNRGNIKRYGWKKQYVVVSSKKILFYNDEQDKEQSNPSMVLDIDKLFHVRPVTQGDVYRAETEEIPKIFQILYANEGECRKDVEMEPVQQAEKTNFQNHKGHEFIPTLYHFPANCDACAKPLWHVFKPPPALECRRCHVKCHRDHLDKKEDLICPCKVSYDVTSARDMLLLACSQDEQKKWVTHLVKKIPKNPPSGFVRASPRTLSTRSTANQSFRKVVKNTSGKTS
Outline: as §1

| Compound | inhibition at 1 µM (PRKG2 (PKG2)) | inhibition at 10 µM (PRKG2 (PKG2)) | inhibition at 1 µM (AXL) | inhibition at 10 µM (AXL) | inhibition at 1 µM (ROCK1) | inhibition at 10 µM (ROCK1) |
| --- | --- | --- | --- | --- | --- | --- |
| COc1ccc2c(c1OC)c(=O)n1c3ccc(O)cc3c3ccnc2c31 [MW01, 5-Hydroxy-10,11-dimethoxy-9H-benzo[c]indolo[3,2,1-ij][1,5]naphthyridin-9-one] | 47% | 72% | 51% | 80% | 0% | 13% |
| COc1ccc2cc3c(N)nn(C(=O)c4cccc(N(C)C)c4)c3nc2c1 [MW05, (3-Amino-7-methoxypyrazolo[3,4-b]quinolin-1-yl)-[3-(dimethylamino)phenyl]methanone] | 7% | 0% | 4% | -8% | -4% | -5% |
